The source of these data is ChEMBL document CHEMBL3352736, “Synthesis and preliminary biological evaluation of new antiproliferative aromatic analogues of 1α,25-dihydroxyvitamin D3” (Eur J Med Chem, 2014).

Some results are limits rather than exact numbers.

For the experiment, the system named is HL-60. Kind of experiment: […] of human HL60 cells incubated for 144 hrs by Wst-1 dye based assay. It is filed as functional. Conditions: HL-60, 144 h.
For `CC(C)CCC[C@@H](C)[C@H]1CC[C@H]2/C(=C/c3cccc(CO)c3CO)CCC[C@]12C`, inhibition was half-maximal at 32.4 µM (IC50).
The result for `C[C@H](CC#CC(C)(C)O)[C@H]1CC[C@H]2/C(=C/c3cccc(C(O)CCO)c3)CCC[C@]12C` (some centres not stated) reads 7.8 µM; that for `C[C@H](CC#CC(C)(C)O)[C@H]1CC[C@H]2/C(=C/c3cccc(CO)c3CO)CCC[C@]12C`, > 100 µM; that for `CC(C)CCC[C@@H](C)[C@H]1CC[C@H]2/C(=C/c3ccc(CO)c(CO)c3)CCC[C@]12C`, 63.2 µM.
The result for `C[C@H](CC#CC(C)(C)O)[C@H]1CC[C@H]2/C(=C/c3ccc(CO)c(CO)c3)CCC[C@]12C` reads 0.6 µM; that for `CC(C)CCC[C@@H](C)[C@H]1CC[C@H]2/C(=C/c3cccc(C(O)CCO)c3)CCC[C@]12C` (some centres not stated), 5.4 µM.
The result for `C[C@H](CCCC(C)(C)O)[C@H]1CC[C@H]2/C(=C/c3cccc(C(O)CCO)c3)CCC[C@]12C` (some centres not stated) reads 1.4 µM.

By IC50 is commonly meant the concentration needed to halve the response being measured. A higher IC50 goes with lower potency.
